Source: patent US9603888B2, “Pea protein peptides with anti Helicobacter pylori activity” (priority 2010, dated 2017)
Values joined by “and” are separate entries in the source; they are usually repeats but may differ in a detail not shown here. Equal entries are not always repeated. Where no end group is shown, it is not given here.

Assays:
[1] = test system: FITC-labelled H. pylori on AGS cells; assay: Flow cytometric anti-adhesion assay of FITC-labelled H. pylori on AGS cells; details: for reduction of adhesion: fragments of S3
Experimental: H. pylori was incubated for 48 h under microaerophilic conditions at 37° C. on Tryptic Soy Agar (Becton Dickinson, Germany), supplemented with 5% defibrinated sheep blood (Oxoid, UK).
Human gastric epithelial cells (AGS cells) were grown in RPMI 1640 with L-glutamine (PAA, Germany), supplemented with 10% FCS, on tissue culture flasks (75 cm^2, Sarstedt, USA) and 6-well-plates (Sarstedt, USA) in 5% CO2.
Agar grown H. pylori were harvested and resuspended in sterile carbonate buffer (pH 9.0) to a density of about 1.0×10^8 bacteria per ml. 10 μl of a FITC solution (1% in DMSO) were added and incubated with the bacteria for 45 min. Fluorescent labelling was terminated by pelleting the bacteria (3.150×g, 5 min). Bacteria were washed twice in PBS to remove excess FITC and were gently resuspended for further use.

OMP BabA = assay: Dot blot glycoconjugate assay, BabA ligands (Lewis b, H type I); format: binding; details: pre-treatment of H. pylori
[2] = test system: FITC-labelled H. pylori on human gastric mucosa; assay: In situ adhesion assay on histological sections of human gastric mucosa; format: cell-based; details: 300 μM
Experimental: In situ experiments with histological sections of human gastric mucosa and FITC-labelled H. pylori were performed according to Lengsfeld et al, 2004, J. Agricul. Food Chem: 52, 1495-1503, and evaluated by fluorescent microscopy. The adhesion of FITC-labelled H. pylori to the epithelium was assessed by fluorescent microscopy and imaging. The quantity of adhering bacteria to the epithelial surface was evaluated under double blinded conditions. Maximal adhesion was expressed as total 100% adhesion. The fluorescence area intensity was calculated by ImageJ® software (Olympus, Germany), standardizing the fluorescent area of the negative control as 100%.

[3] = test system: H. pylori outer membrane proteins (OMP); assay: Dot blot glycoconjugate assay, adhesins in general; format: binding; details: pre-treatment of H. pylori
[4] = 75 μM, untreated control = 100%
[5] = 150 μM, untreated control = 100%

| Compound | rel. adhesion in [%] (±SEM; n = 3) [1, 4] | rel. adhesion in [%] (±SEM; n = 3) [1, 5] | further results |
| --- | --- | --- | --- |
| CC(=O)N[C@H]1[C@H]([C@H](O)[C@H](O)CO)O[C@@](O[C@H]2[C@@H](O)[C@@H](CO)O[C@@H](O[C@H]3[C@H](O)[C@@H](O)C(O)O[C@@H]3CO)[C@@H]2O)(C(=O)O)C[C@@H]1O (stereo partly shown) [positive control, 3′sialyllactose, reference compound] |  |  | rel. adhesion in [%] (±SEM; n = 3) ([1]; positive control 3′sialyllactose 15 mM): 70 ± 5% |
| AFNVNR [S3B] | 97 ± 4% | 104 ± 1% |  |
| Asp-Ala-Phe [S3H] | 104 ± 6% | 105 ± 1% | antiadhesive activity against H. pylori (in words) [1]: inactive |
| Asp-Phe-Leu-Glu-Asp (DFLED) [S3A] | 102 ± 3% | 108 ± 6% |  |
| DAFNVNR [S3D] | 89 ± 4% | 89 ± 3% | reduction of adhesion [1]: about 10% |
| DFLEDAF [S3F] | 85 ± 3% | 90 ± 5% | reduction of adhesion [1]: about 10% |
| DFLEDAFNV [S3E] | 91 ± 4% | 91 ± 4% | reduction of adhesion [1]: about 10% |
| DFLEDAFNVNR [S3] | 81% and 81 ± 3% | 83% and 83 ± 6% | bacterial interaction with Lewis b-HSA conjugate (OMP BabA): inhibition; inhibition of adhesion in situ [2]: about 40%; antiadhesive activity against H. pylori (in words) [1]: inhibit adhesion; influence on other adhesins (other than BabA / Lewis b-HSA) [3]: not significantly influenced |
| ELAFPGSAQEVDR [S5] | 94 ± 2% | 85 ± 2% | bacterial interaction with Lewis b-HSA conjugate (OMP BabA): inhibition; antiadhesive activity against H. pylori (in words) [1]: inhibit adhesion; inhibition of adhesion ([1]; 75 μmol): 6%; inhibition of adhesion ([1]; 150 μmol): 17%; influence on other adhesins (other than BabA / Lewis b-HSA) [3]: not significantly influenced |
| GDFELVGQR [S6] | 94 ± 3% | 97 ± 2% |  |
| LDALEPDNRIESEGGLIETWNPNNK [S1] | 95 ± 10% | 104 ± 7% |  |
| LEDAFNV [S3G] | 93 ± 2% | 94 ± 3% | reduction of adhesion [1]: about 10% |
| LEDAFNVNR [S3C] | 95 ± 5% | 100 ± 4% |  |
| LNIGPSSSPDIYNPEAGR [S2] | 93 ± 8% | 94 ± 6% |  |
| WEREEDEEQVDEEWR [S4] | 98 ± 2% | 107 ± 2% |  |
